# Values quoted from earlier work as cited in article PMC11902296, “cAmbly: A non-toxic cell-penetrating peptide derived from Amblyomin-X with targeted delivery to mitochondrial and cytoplasmic proteins” (PLOS One, 2025).
# No end group written: not given here.
# Experiments:
# tumor cells [1] = conditions: isolated domain of Amblyomin-X
# From the text: Amblyomin-X is a promising antitumoral protein that requires cellular internalization to exert its activity.
# tumor cells [2] = conditions: isolated domain of Amblyomin-X; remark: listed apart in the source
# From the text: One promising candidate has emerged from Amblyomin-X, a Kunitz-type protease inhibitor derived from the salivary glands of the tick Amblyomma sculptum. […] Structurally, Amblyomin-X consists of two distinct regions: a non-permeant Kunitz-type domain located at the N-terminus, which mediates the protein’s cytotoxic activity, and a disordered C-terminal tail.
sequence,measurement,setting,value
EEQTHFHFESPKLISFKVQDYWILNDIMKKNLTGISLKSEEEDADSGEID [cAmbly],ability to enter cells,tumor cells [1],can penetrate cells
same,cytotoxic activity,tumor cells [2],lacks cytotoxic activity
